{"source": "patent US7550425B2", "about": "“Diuretic peptide conjugates” (Zealand Pharma A/S, priority 2000, dated 2009)", "key": {"[1]": {"system": "conscious Sprague Dawley rats", "format": "in vivo, rat", "description": "In the conscious rat model, the animal is chronically instrumented with catheters in the urinary bladder, the femoral artery, and the femoral vein. The animal receives a continuous i.v. infusion with isotonic saline, 50 μl/min. Urine is collected in vials in consequtive urine collection periods of 10 min each. After two control periods, the test compound is administered and fractionated urine collections (10 min periods) are continued for at least two hours. Urinary concentrations of sodium and potassium are determined by flame photometry (Instrumentation Laboratory 943) using caesium as internal standard.\nThe diuretic effect of the peptide conjugates of the invention has been tested in conscious rats, where Compound 1 elicits a powerful and sustained diuretic response. Cardiovascular and renal responses produced by i.v. infusion of nociceptin (Phoenix Pharmaceuticals) and Compound 1 have been studied in conscious Sprague Dawley rats. The results are shown in FIGS. 2 to 8 wherein HR is heart rate, MAP is mean arterial pressure, V is urine flow rate, UNaV is urinary excretion rate of sodium, RSNA is renal sympathetic nerve activity expressed as % of the control level, Cosm is the osmolar clearance, and CH2O is free water clearance.\nFurthermore, the effects of i.v. bolus administration of nociceptin (30 and 100 nmol/kg, Phoenix Pharmaceuticals) and nociceptin-NH2 (30 nmol/kg) on heart rate, arterial pressure and RSNA were studied in groups of 6 conscious Sprague-Dawley rats.\n[…] After stabilization of urine flow rate and urinary sodium excretion, urine was collected during a 20-min control period. After this, the i.v. bolus injection was given or the i.v. infusate was switched to a solution of isotonic saline containing Compound 1 (i.v. infusion experiments). From the time of drug administration, experimental urine samples (10-min consecutive periods) were taken for 80 min.\nOne hour prior to the start of each experiment a food pellet (standard rodent chow) was placed within access to the rat though a hole in the rat holder. The number and time of feeding responses (i.e., times in which the rat began to eat the food pellet) was recorded before, and after drug administration. If a positive feeding response was observed, the pellet was removed from the restrainer to prevent feeding-induced alterations in heart rate and/or mean arterial pressure. At 10-min intervals, the food pellet was presented to the rat to determine the duration of the feeding response."}, "[2]": {"system": "opioid (non-selective opiate, δ, κ, μ), vasopressin (V1a, V1b, V2) and 40 other receptor, uptake and ion channel binding sites", "assay": "Receptor, uptake and ion channel binding panel", "conditions": "0.1, 10 and 1000 nM (opioid, vasopressin); 10 μM (other sites)", "description": "In addition, Compound 1 has been tested in 5 opioid (non-selective opiate, δ, κ, μ, &ORL1), 3 vasopressin (V1a, V1b and V2) receptor binding assays at 0.1, 10, and 1000 nM as well as in 40 different receptor, uptake, and ion channel binding sites (A1, A2, α1, α2, β1, NE uptake, AT1, BZD, B2 (h), CCKA (˜CCK1), D1, D2, ETA(h), GABA, NMDA, H1, M, NK1(h), Y, N, opiate, PCP, 5-HT, 5-HT1B, 5-HT2A, 5-HT uptake, σ, V1) at 10 μM."}, "[3]": {"assay": "In vitro stability in heparinised human plasma", "format": "in vitro ADME", "description": "In addition, the degradation of Compound 1 of the invention has been studied in heparinised human plama.\nThe stability of peptides is analysed in human plasma. The peptides are incubated at 37° C. in plasma and samples taken at approx. 8 regular intervals between t=0 and t=390 min for Compound 1 and nociceptin-NH2, and at 9 intervals between t=0 and t=32 min for Compound CE1 are analysed by HPLC. […] This is done by subsequent injections of the drug, plasma, and a co-injection with the drug and the plasma, followed by optimisation of the LC method parameters until a satisfactory separation is obtained. Three parallel experiments are performed for each plasma type. 100 μl of peptide is mixed with 900 μl plasma at t=0 and incubated at 37° C. (drug-plasma mixture conc. 0.1 mg/ml). Samples of 100 μl of the drug-plasma mixture are removed at appropriate intervals and the degradation stopped by precipitation of the sample with 10 μl MeCN:TFA 50:50 v/v. A control plasma sample without the drug treated in the same manner is also taken. The plasma samples are centrifuged for 15 min. at 12,000 rpm (Eppendorf centrifuge) at ambient temperature. The resulting supernatant solution is transferred to 300 μl HP autosamler vials and analyzed by HPLC. HPLC analysis are performed as follows:\nAc-RYYRWK-NH2 (SEQ ID NO: 1) and Compound 1\nThe samples are analysed in the following order: blank, the peptide at 0.1 mg/mL, the plasma without the peptide, the three parallel samples for t=0, the three parallel samples for t=5 min. the three parallel samples for t=60 min. etc. And finally the three parallel samples for t=0 are repeated to make sure that there have been no degradation or other failure during the analyses. The sample concentrations (peak height in mAU) are plotted vs. time and fitted to a function describing a mono exponential decay (Excel). The half-lives of the peptides in plasma are presented in Table 7 as mean (n=3)±standard deviation."}, "[4]": {"conditions": "I.v. bolus injection 30 nmol/kg"}, "[5]": {"conditions": "I.v. infusion 0.1 nmol/kg/min (n = 6)"}, "[6]": {"conditions": "I.v. infusion 1.0 nmol/kg/min (n = 6)"}, "[7]": {"conditions": "I.v. infusion 10 nmol/kg/min (n = 6)"}, "[8]": {"conditions": "i.v. infusion 1 and 0.1 nmol/kg/min, FIG. 3"}}, "note": "Like-named read-outs stand apart in the source and are kept apart here. Wherever Behavioral changes is given: key: 0 indicates a lack of response; (↓) indicates a very weak decrease; ↓ indicates a weak decrease; ↑ indicates a weak increase; ↑↑ indicates a strong increase. Wherever Food intake is given: key: 0 indicates a lack of response; (↓) indicates a very weak decrease; ↓ indicates a weak decrease; ↑ indicates a weak increase; ↑↑ indicates a strong increase. Wherever UNaV is given: key: 0 indicates a lack of response; (↓) indicates a very weak decrease; ↓ indicates a weak decrease; ↑ indicates a weak increase; ↑↑ indicates a strong increase.", "data": [{"substance": "Ac-RYYRWKKKKKKK-NH2 [Compound 1, Ac-RYYRWKKKKKKK-NH2]", "values": [{"measurement": "Δ Blood Pressure (%)", "setting": "[1]; I.v. bolus 10 nmol/kg (n = 6)", "result": "−4 ± 1", "unit": "%"}, {"measurement": "Δ K excretion (%)", "setting": "[1]; I.v. bolus 10 nmol/kg (n = 6)", "result": "−35 ± 4", "unit": "%"}, {"measurement": "Δ Na excretion (%)", "setting": "[1]; I.v. bolus 10 nmol/kg (n = 6)", "result": "−44 ± 3", "unit": "%"}, {"measurement": "Δ Urine Flow (%)", "setting": "[1]; I.v. bolus 10 nmol/kg (n = 6)", "result": "+83 ± 42%"}, {"measurement": "Δ Blood Pressure (%)", "setting": "[1]; I.v. bolus 30 nmol/kg (n = 4)", "result": "−8 ± 2", "unit": "%"}, {"measurement": "Δ K excretion (%)", "setting": "[1]; I.v. bolus 30 nmol/kg (n = 4)", "result": "−20 ± 7", "unit": "%"}, {"measurement": "Δ Na excretion (%)", "setting": "[1]; I.v. bolus 30 nmol/kg (n = 4)", "result": "−51 ± 7", "unit": "%"}, {"measurement": "Δ Urine Flow (%)", "setting": "[1]; I.v. bolus 30 nmol/kg (n = 4)", "result": "+207 ± 11%"}, {"measurement": "Δ Blood Pressure (%)", "setting": "[1]; I.v. bolus 100 nmol/kg (n = 6)", "result": "−12 ± 2", "unit": "%"}, {"measurement": "Δ K excretion (%)", "setting": "[1]; I.v. bolus 100 nmol/kg (n = 6)", "result": "−52 ± 5", "unit": "%"}, {"measurement": "Δ Na excretion (%)", "setting": "[1]; I.v. bolus 100 nmol/kg (n = 6)", "result": "−70 ± 2", "unit": "%"}, {"measurement": "Δ Urine Flow (%)", "setting": "[1]; I.v. bolus 100 nmol/kg (n = 6)", "result": "+249 ± 60%"}, {"measurement": "Δ Blood Pressure (%)", "setting": "[1]; I.v. bolus 300 nmol/kg (n = 4)", "result": "−15 ± 3", "unit": "%"}, {"measurement": "Δ K excretion (%)", "setting": "[1]; I.v. bolus 300 nmol/kg (n = 4)", "result": "−79 ± 6", "unit": "%"}, {"measurement": "Δ Na excretion (%)", "setting": "[1]; I.v. bolus 300 nmol/kg (n = 4)", "result": "−85 ± 6", "unit": "%"}, {"measurement": "Δ Urine Flow (%)", "setting": "[1]; I.v. bolus 300 nmol/kg (n = 4)", "result": "+127 ± 47%"}, {"measurement": "Behavioral changes", "setting": "[1]; [4]", "result": 0}, {"measurement": "Food intake", "setting": "[1]; [4]", "result": 0}, {"measurement": "HR", "setting": "[1]; [4]", "result": 0}, {"measurement": "MAP", "setting": "[1]; [4]", "result": 0}, {"measurement": "Behavioral changes", "setting": "[1]; I.v. infusion 0.1 nmol/kg/min", "result": 0}, {"measurement": "Food intake", "setting": "[1]; I.v. infusion 0.1 nmol/kg/min", "result": 0}, {"measurement": "HR", "setting": "[1]; I.v. infusion 0.1 nmol/kg/min", "result": 0}, {"measurement": "UNaV", "setting": "[1]; I.v. infusion 0.1 nmol/kg/min", "result": 0}, {"measurement": "Δ Blood Pressure (%)", "setting": "[1]; [5]", "result": "−5 ± 4", "unit": "%"}, {"measurement": "Δ K excretion (%)", "setting": "[1]; [5]", "result": "−16 ± 6", "unit": "%"}, {"measurement": "Δ Na excretion (%)", "setting": "[1]; [5]", "result": "−5 ± 3", "unit": "%"}, {"measurement": "Δ Urine Flow (%)", "setting": "[1]; [5]", "result": "+99 ± 21%"}, {"measurement": "Behavioral changes", "setting": "[1]; I.v. infusion 1.0 nmol/kg/min", "result": 0}, {"measurement": "Food intake", "setting": "[1]; I.v. infusion 1.0 nmol/kg/min", "result": 0}, {"measurement": "HR", "setting": "[1]; I.v. infusion 1.0 nmol/kg/min", "result": 0}, {"measurement": "Δ Blood Pressure (%)", "setting": "[1]; [6]", "result": "−10 ± 2", "unit": "%"}, {"measurement": "Δ K excretion (%)", "setting": "[1]; [6]", "result": "−51 ± 9", "unit": "%"}, {"measurement": "Δ Na excretion (%)", "setting": "[1]; [6]", "result": "−64 ± 7", "unit": "%"}, {"measurement": "Δ Urine Flow (%)", "setting": "[1]; [6]", "result": "210 ± 51", "unit": "%"}, {"measurement": "Δ Blood Pressure (%)", "setting": "[1]; [7]", "result": "−15 ± 3", "unit": "%"}, {"measurement": "Δ K excretion (%)", "setting": "[1]; [7]", "result": "−68 ± 15", "unit": "%"}, {"measurement": "Δ Na excretion (%)", "setting": "[1]; [7]", "result": "−79 ± 6", "unit": "%"}, {"measurement": "Δ Urine Flow (%)", "setting": "[1]; [7]", "result": "160 ± 68", "unit": "%"}, {"measurement": "bradycardia and hypotension to an i.v. bolus injection of nociceptin", "setting": "[1]; after 120 min of i.v. infusion 1 nmol/kg/min, n=6", "result": "completely blocked"}, {"measurement": "water diuretic response", "setting": "[1]; continuous i.v. infusion 1 and 10 nmol/kg/min", "result": "selective water diuretic response"}, {"measurement": "heart rate, arterial pressure and RSNA", "setting": "[1]; i.v. bolus 30 nmol/kg", "result": "did not produce any changes in heart rate, blood pressure or RSNA"}, {"measurement": "stimulation of appetite or behavioral changes", "setting": "[1]; i.v. bolus 30 nmol/kg", "result": "do not show any signs of stimulation of appetite or behavioral changes"}, {"measurement": "diuretic (V) and antinatriuretic (UNaV) response", "setting": "[1]; i.v. bolus 30 nmol/kg, data not shown", "result": "marked diuretic (V) and antinatriuretic (UNaV) response"}, {"measurement": "appetite, sedation, behavioral changes", "setting": "[1]; i.v. infusion 1 and 0.1 nmol/kg/min", "result": "no signs of increased appetite, sedation, or behavioral changes"}, {"measurement": "HR response", "setting": "[1]; [8]", "result": "little effect on HR"}, {"measurement": "MAP response", "setting": "[1]; [8]", "result": "slight, but significant reduction in MAP"}, {"measurement": "diuretic (V) and antinatriuretic (UNaV) responses", "setting": "[1]; [8]", "result": "significant diuretic (V μl/min) and antinatriuretic responses"}, {"measurement": "fold more potent than nociceptin in producing similar magnitude diuretic and antinatriuretic responses", "setting": "[1]; i.v. infusion, FIGS. 5 and 6", "result": "approximately 10 fold"}, {"measurement": "duration of the diuretic effect", "setting": "[1]; i.v. infusion, compared with nociceptin", "result": "tended to persist for a greater duration than that of i.v. nociceptin infusion"}, {"measurement": "binding to other receptors than the ORL1 receptor", "setting": "[2]", "result": "none or only weak binding to other receptors than the ORL1 receptor"}, {"measurement": "half-life at 0.1 mg/ml", "setting": "[3]; 37° C., mean (n=3) +/− deviation, read-out: T1/2 in min (degradation in human heparinised plasma)", "result": 16.2, "unit": "h"}, {"measurement": "half-life at 0.1 mg/ml", "setting": "[3]; read-out: half life in plasma", "result": "> 16", "unit": "h"}]}]}
